Drawing on the RepoRT retention time repository (doi:10.1016/j.chroma.2014.05.003), this text covers LC retention time for 67 compounds.

This data set can be described thus: RP, Agilent ZORBAX Eclipse Plus C18, 50 × 4.6 mm, 1.8 µm, 0.5 mL/min, estimated dead time 1.1 min; A: water + 0.1% formic acid; B: acetonitrile + 0.1% formic acid; gradient (min/%B) 0/10 3/10 25/100 28/100. The note with it: stereoisomer not certain.

On to `CCNC(C)Cc1ccc2c(c1)OCO2` (configuration not stated), for which the LC retention time is 6.16 min. For `COC=C(C(=O)OC)c1ccccc1Oc1cc(Oc2ccccc2C#N)ncn1`, the LC retention time is 15.8 min. The figure for `COc1ccc(-c2ccccc2)cc1NNC(=O)OC(C)C` is 16.6 min. In the case of `COP(N)(=S)Oc1ccccc1C(=O)OC(C)C` (configuration not stated), the LC retention time is 14.9 min.

Take `Cc1cc(C2CC2)nc(Nc2ccccc2)n1`: the LC retention time was 14.3 min. For the compound `CNC(C)Cc1ccccc1` (configuration not stated), the LC retention time is 4.88 min. As for `CCOP(=S)(OCC)Oc1ccc([N+](=O)[O-])cc1`, the figure is 18.5 min.

For the compound `CCCCCCCCCCCC[N+](C)(C)Cc1ccccc1`, the LC retention time was 16.2 min.

As for `Cc1cccc(Nc2ccccc2C(=O)O)c1C`, the LC retention time is 17.7 min. As for `COc1nc(NC(C)C)nc(NC(C)C)n1`, the figure is 9.02 min; as for `CCCCC(CC)COC(=O)c1ccccc1C(=O)OCC(CC)CCCC` (configuration not stated), 27.5 min. On to `CC(N)Cc1ccc2c(c1)OCO2` (configuration not stated), for which the LC retention time was 4.74 min. The figure for `CNC(=O)N(C)c1nnc(C(C)(C)C)s1` is 9.87 min; for `CCn1cc(C(=O)O)c(=O)c2cc3c(cc21)OCO3` it is 9.71 min; for `CCCCc1c(C)nc(NCC)nc1OS(=O)(=O)N(C)C` it is 14.4 min. The figure for `CC(C)(C)c1ccc(CCOc2ncnc3ccccc23)cc1` is 22 min; for `CSc1nc(NC2CC2)nc(NC(C)(C)C)n1` it is 12.6 min; for `C=C(C)C1Cc2c(ccc3c2OC2COc4cc(OC)c(OC)cc4C2C3=O)O1` (configuration not stated) it is 17.2 min. As for `CC(=O)Nc1ccc(O)cc1`, the figure is 2.66 min; as for `CCOP(=O)(Sc1ccccc1)Sc1ccccc1`, 17.6 min; as for `COC(=O)c1ccc(C)cc1C1=NC(C)(C(C)C)C(=O)N1` (configuration not stated), 9.12 min. `CCCCN(CC)C(=O)SCCC`: the LC retention time is 19.6 min.

Take `COC1C(OC(C)=O)CC(=O)OC(C)CC=CC=CC(O)C(C)CC(CC=O)C1OC1OC(C)C(OC2CC(C)(O)C(OC(=O)CC(C)C)C(C)O2)C(N(C)C)C1O` (configuration not stated): the LC retention time is 12 min. The figure for `CCOc1ccc(NC(=O)OC(C)C)cc1OCC` is 15.3 min; for `Cc1ncc([N+](=O)[O-])n1CCO` it is 2.77 min. As for `CCN(CC)N=O`, the figure is 15.9 min; as for `CCNc1nc(NCC)nc(SC)n1`, 8.74 min.

On to `CN(C)C1CSSSC1`, for which the LC retention time is 2.02 min. As for `CCOC(=O)C1CC(=O)C(=C(O)C2CC2)C(=O)C1` (configuration not stated), the figure is 14.2 min; as for `CC12CCC3c4ccc(O)cc4CCC3C1CCC2O` (configuration not stated), 13.4 min; as for `CCC1CCCC(OC2CCC(N(C)C)C(C)O2)C(C)C(=O)C2=CC3C(C=C(C)C4CC(OC5OC(C)C(OC)C(OC)C5OC)CC43)C2CC(=O)O1` (configuration not stated), 14.2 min. As for `COP(=S)(OC)Oc1ccc(Sc2ccc(OP(=S)(OC)OC)cc2)cc1`, the figure is 21.2 min; as for `CCCN(CCC)C(=O)SCc1ccccc1`, 20.4 min; as for `CNC(=O)N(C)c1nc2ccccc2s1`, 12.1 min.

As for `CC12CCC3c4ccc(O)cc4CCC3C1CCC2=O` (configuration not stated), the LC retention time was 14.6 min. `C#CC1(O)CCC2C3CCc4cc(O)ccc4C3CCC21C` (configuration not stated): the LC retention time was 14.3 min. As for `Cc1cccc(C)c1N`, the figure is 5.94 min. As for `O=NN1CCCCC1`, the figure is 6.57 min. The figure for `CCSCc1ccccc1OC(=O)NC` is 13.1 min; for `Cn1c(=O)c2[nH]cnc2n(C)c1=O` it is 2.8 min; for `CC12CCC(O)CC1CCC1C2CC(O)C2(C)C(C3=CC(=O)OC3)CCC12O` (configuration not stated) it is 8.14 min. With `COCC(=O)N(c1c(C)cccc1C)N1CCOC1=O`, the LC retention time is 10.9 min. As for `CCCN(CC)CC1COC2(CCC(C(C)(C)C)CC2)O1` (configuration not stated), the figure is 12.5 min; as for `CC(C)(c1ccc(O)cc1)c1ccc(O)cc1`, 13.1 min. The figure for `Cc1ccc(C(C)(C)C)c(O)c1C(=O)O` is 14.2 min; for `CCNc1nc(NC(C)C)nc(SC)n1` it is 10.4 min; for `CNC(=O)CSP(=O)(OC)OC` it is 2.22 min. The figure for `CC12CCC3C(=CCc4cc(O)ccc43)C1CCC2=O` (configuration not stated) is 14.4 min; for `CCC(C)C(=O)OC1CC(O)C=C2C=CC(C)C(CCC(O)CC(O)CC(=O)O)C21` (configuration not stated) it is 10.7 min. As to `CCOC(=O)NCCOc1ccc(Oc2ccccc2)cc1`, the LC retention time is 17 min. As for `Cc1c(C(C)C)c(=O)n(-c2ccccc2)n1C`, the figure is 11.9 min. The figure for `CC1c2cccc(O)c2C(O)=C2C(=O)C3(O)C(O)=C(C(N)=O)C(=O)C(N(C)C)C3C(O)C21` (configuration not stated) is 8.75 min; for `COCC(=O)N(c1c(C)cccc1C)C(C)C(=O)OC` (configuration not stated) it is 12.9 min; for `CCn1cc(C(=O)O)c(=O)c2ccc(C)nc21` it is 11.5 min.

Take `CNC(=O)ON=C(C)C(C)S(C)(=O)=O` (configuration not stated): the LC retention time was 4.36 min. For the compound `NC(N)=Nc1nc(CSCCC(N)=NS(N)(=O)=O)cs1`, the LC retention time was 1.81 min. The figure for `COc1nn(CSP(=S)(OC)OC)c(=O)s1` is 15.3 min. The figure for `CC12CCC3C(CCC4=CC(=O)CCC43C)C1CCC2=O` (configuration not stated) is 14.8 min; for `CNC(=O)Oc1cc(C)c(SC)c(C)c1` it is 15 min.

Consider `CCOc1ccc2c(c1)C(C)=CC(C)(C)N2`, for which the LC retention time is 11.8 min. In the case of `CCOC(=O)N(C)C(=O)CSP(=S)(OCC)OCC`, the LC retention time is 17.8 min. As for `COC1C(O)CC(=O)OC(C)CC=CC=CC(OC2CCC(N(C)C)C(C)O2)C(C)CC(CC=O)C1OC1OC(C)C(OC2CC(C)(O)C(O)C(C)O2)C(N(C)C)C1O` (configuration not stated), the figure is 7.59 min; as for `CC(Cc1ccc(C(C)(C)C)cc1)CN1CC(C)OC(C)C1` (configuration not stated), 12.4 min; as for `CCCCCCCCCCCCCC[N+](C)(C)Cc1ccccc1`, 18.4 min. The figure for `CCN(CC)c1nc(C)cc(OP(=S)(OC)OC)n1` is 19 min. On to `O=NN1CCCC1`, for which the LC retention time is 2.66 min. The figure for `c1ccc(Nc2ccccc2)cc1` is 17.2 min.
